We go through one compound from patent publication US20240124510A1, “Cyclic Glycoaminoacid Derivatives” (TFCHEM, priority 2021, published 2024).

Where “and” joins values, the source holds several entries; their conditions need not be identical. Equal values may be shown once.

The subject of one data set is MCP1. Description: Extracellular secretion of MCP1 by preadipocytes in inflammatory condition (ELISA). The format is cell-based, human. To be noted: for MCP1 secretion, Mean (%) / MCP1 secretion, Values (%): inflammatory condition, normalized by cells number (Dapi); for MCP1 secretion, Values (%): individual values; for MCP1 secretion compared to the AcMC control condition fixed at 100%: differentiated preadipocytes. The protocol: (§1) Preadipocytes have been isolated from human female hypodermis (body mass index <30 kg/m2 and <45 years old). Preadipocytes have been cultured for 24 h in 100 μl of DMEM-10% Fetal Bovine Serum (FBS) in 96-well plates. Then cells were treated to induce their differentiation in a classical or an inflammatory environment for 13 days.
(§2) To induce the preadipocytes differentiation cells were incubated in a proadipogenic cocktail (PAC) including insulin, glucocorticoid, 3-isobutyl-1-methylxanthine (IBMX), and thiazolinedione in DMEM.
(§3) To induce a fibro-inflammatory environment, cells were treated with an activated human macrophage-conditioned medium (AcMC) prepared in RPMI medium. A treatment with Dexamethasone (DXM) at 100 nM was used as anti-inflammatory response control. At D0: preadipocytes have been treated in the following conditions: • “Undifferentiation”: DMEM+¼ RPMI medium • “Differentiation”: PAC+¼ RPMI medium • “AcMC” i.e. inflammatory condition: PAC+¼ AcMC • “AcMC+DXM”: PAC+[…] AcMC+anti-inflammatory DXM at 100 nM • “AcMc+compounds”: PAC+14 AcMC+compounds to be tested
(§4) All conditions have been performed in triplicate. The medium has been changed every 2 days for 13 days.
(§5) At D14: during the last 24 h of culture, the medium has been replaced by DMEM/F12 medium in all conditions, to collect cells' secretions.
After 13 days, the 24 h culture media of the different conditions have been collected at the end of the treatment period. The concentrations of IL-6, procollagen I and MCP1 have been evaluated by ELISA assays using specific kits (for IL-6: DY206, DuoSet ELISA, R&D Systems; for Procollagen I: DY6220-05, DuoSet ELISA, R&D Systems; for MCP1: DY279-05 DuoSet ELISA, R&D Systems) according to the manufacture's recommendations. Values have been normalized to the cell number determined by DAPI staining.
Quantity of MCP1 secreted in medium was measured and was normalized by cell number in each culture condition. Data are represented in percentage of proinflammatory control condition (AcMC condition).
In general terms: In an ELISA, binding on a coated surface is turned into a signal by an enzyme label.

For another data set, the system named is IL-6. Description: IL-6 secretion in coculture of human aged fibroblasts and mature adipocytes (AM3D-FB2D, ELISA). The format is cell-based. To be noted: for secretion of IL-6 in percentage of the coculture control condition, Values (%): individual replicates. From the text: In order to evaluate its effect on fibroblast matrix and its anti-inflammatory properties, the effect of compound 6 has been tested on an adipocytes-aged fibroblasts coculture model, mimicking the interactions between dermis and hypodermis in the skin and allowed to explore in parallel the biological effects of the products on two cellular targets.
• Experimental model: co-culture of human mature adipocytes cultured in 3D and human dermal fibroblasts cultured in 2D (AM3D-FB2D co-culture). This experimental model of AM3D-FB2D co-culture mimicked the interactions between dermis and hypodermis in the skin and allowed to explore in parallel the biological effects of the products on two cellular targets. • Donor characteristics: This study was performed on mature adipocytes and fibroblasts from two different donors (one donor for mature adipocytes and another donor for dermal fibroblasts). • Fibroblasts donor=person, BMI=28 kg/m^2 • Adipocytes donor=person, BMI=21.4 kg/m^2 • Treatment procedure: compound 6 was added to the co-culture medium daily for up to 6 days
Dermal fibroblasts were seeded in DMEM 10% FBS at 10000 cells/well. The day after, the adipocytes capsules of 50 μl were added in suspension above the fibroblasts and the medium was changed and replaced by a specific culture medium for the co-culture AM3D-FB2D. The formation of adipocytes capsules followed an internal standardized protocol. Briefly, the fully mature adipocytes were isolated from the hypodermis after digestion by collagenase. The isolated adipocytes were then washed with a wash buffer and encapsulated in a peptidic hydrogel to form 3D adipocytes capsules of 50 μl in size. Cells were incubated at 37° C. and 5% CO2 overnight for stabilization. Treatments were initiated at DO with a medium change at DO, D2, D3 and D5. The entire culture media of 24 h incubation was collected at D3 and D6, before being centrifugated and stored at −80° C. Each culture condition was done in triplicate.
The biochemical analyses on culture media were performed via ELISA using specific kits according to the manufacturer's recommendations: IL-6 (Duoset DY206, R&D Systems), and Hyaluronic Acid (HA) (Duoset, DY3614-05, R&D Systems and Procollagen I (Duoset, DY6220-05, R&D Systems) The results of HA and Procollagen I were normalized by fibroblasts cell number regarding the fact that these molecules were secreted mainly by fibroblasts. All the biochemical results were represented in percentage of the control condition.
To evaluate the effect of the compound 6 on inflammation, the extracellular concentrations of IL-6, that is secreted by the fibroblasts but mainly by the adipocytes, were measured at D3 and D6.

The next data set concerns human preadipocytes. The data set is described as follows: Cytotoxicity (LDH release) on preadipocytes in inflammatory condition (AcMC). It counts as cell-based. To be noted: for Cytotoxicity at the end of the culture, normalized by cell number, Values: single replicates. The protocol: as §1, §2, §3, §4, §5
Cytotoxicity was assessed by the measurement of the lactate dehydrogenase (LDH) released by damaged cells in the culture medium (using the kit CytoTox-One Non-Radioactive Cytotoxicity Assay, G1780, Promega). Cells were treated with 0.2% of triton at the end of the culture to determine the maximal toxicity response. The LDH measurement was realized on 24 h medium secretions after 13 days of culture.
The results were normalized by cell number, determined by nuclei staining (with DAPI: 4′,6-Diamidino-2-Phenylindole, Dihydrochloride), and were represented in percentage of the lysis positive control. Compounds presenting a level of cytotoxicity below 20% compared to control were considered as non-toxic.
Quantity of LDH measured in medium was normalized by cell number in each culture condition. Data are represented in percentage of proinflammatory control conditions (AcMC condition).
(In general: LDH in the medium is a marker of cell lysis.)

`N[C@H]1CCCN(CC(F)(F)[C@]2(O)O[C@H](CO)[C@H](O)[C@H](O)[C@H]2O)C1=O` [Compound 6]: the “MCP1 secretion, Mean (%)” value is 71 % of AcMC condition with MCP1 (1 mg/ml) and 65 % of AcMC condition in the data set with MCP1 (2 mg/ml). Moreover, the “MCP1 secretion, Values (%)” value was 58.8 % of AcMC condition and 67.5 % of AcMC condition and 85.6 % of AcMC condition in the data set on MCP1 (1 mg/ml); 62.8 % of AcMC condition and 65.6 % of AcMC condition and 67.5 % of AcMC condition with MCP1 (2 mg/ml). The “MCP1 secretion compared to the AcMC control condition fixed at 100%” value with MCP1 (1 mg/ml) is listed as 71%; in the data set with MCP1 (2 mg/ml), 65%. The “IL-6 secretion in percentage of the coculture control condition” value with IL-6 (2 mg/ml, D3) was 72%; in the data set on IL-6 (2 mg/ml, D6), 53%; with IL-6 (3 mg/ml, D3) it was 73%; in the data set with IL-6 (3 mg/ml, D6), 61%. The “secretion of IL-6 in percentage of the coculture control condition, Mean (%)” value worked out at 72% in the data set on IL-6 (D3, 2 mg/ml); 73% in the data set on IL-6 (D3, 3 mg/ml); 53% with IL-6 (D6, 2 mg/ml); 61% with IL-6 (D6, 3 mg/ml). Also, the “secretion of IL-6 in percentage of the coculture control condition, Values (%)” value in the data set with IL-6 (D3, 2 mg/ml) is 56% and 78% and 82%; in the data set on IL-6 (D3, 3 mg/ml), 75% and 63% and 79%; in the data set on IL-6 (D6, 2 mg/ml) it was 46% and 66% and 45%; in the data set on IL-6 (D6, 3 mg/ml) it was 59% and 54% and 71%. For the same compound, the figures for the “Cytotoxicity at the end of the culture, normalized by cell number, Mean” value in the data set on human preadipocytes (AcMC + 1 mg/ml) and in the data set with human preadipocytes (AcMC + 2 mg/ml) were 81.7 % of AcMC condition and 53.3 % of AcMC condition, respectively. The “Cytotoxicity at the end of the culture, normalized by cell number, Values” was 53.1 % of AcMC condition and 81.8 % of AcMC condition and 110.4 % of AcMC condition in the data set on human preadipocytes (AcMC + 1 mg/ml); 50.5 % of AcMC condition and 50.6 % of AcMC condition and 58.9 % of AcMC condition with human preadipocytes (AcMC + 2 mg/ml).
